This assay has as its system P388 leukemia ip, CD2F1 mice, survival T/C. The assay is described as follows: NCI In Vivo Anticancer Drug Screen. Data for tumor model P388 Leukemia (intraperitoneal) in CD2F1 (CDF1) mice. The conditions noted are these: endpoint: median survival time, higher = longer survival. The method, boiled down:
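Mice carrying the transplanted tumor received test compound or vehicle. Survival was recorded in each group, and the value is the treated-group measurement divided by that of the vehicle-treated control group.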

Setting [1] is: dose: 50.0 mg/kg/injection, schedule: Q01DX005 (ip), vehicle: Klucel (hydroxypropylcellulose) (HPC).
Setting [2] is: dose: 100.0 mg/kg/injection, schedule: Q01DX005 (ip), vehicle: Klucel (hydroxypropylcellulose) (HPC).
[3] abbreviates: dose: 200.0 mg/kg/injection, schedule: Q01DX005 (ip), vehicle: Klucel (hydroxypropylcellulose) (HPC).
Where [4] appears, read: dose: 60.0 mg/kg/injection, schedule: Q01DX005 (ip), vehicle: saline with Tween-80.
Where [5] appears, read: dose: 50.0 mg/kg/injection, schedule: Q01DX005 (ip), vehicle: saline with Tween-80.
[6] abbreviates: dose: 100.0 mg/kg/injection, schedule: Q01DX005 (ip), vehicle: saline with Tween-80.
The mark [7] stands for this setting: dose: 200.0 mg/kg/injection, schedule: Q01DX005 (ip), vehicle: saline with Tween-80.
The mark [8] stands for this setting: dose: 100.0 mg/kg/injection, schedule: Q04DX002 (ip), vehicle: saline with Tween-80.

The structures appear in SMILES notation. Values joined by “and” are separate entries in the source; they are usually repeats but may differ in a detail not shown here. Identical values can stand only once. Inconclusive results and toxic doses are left out.

For `N#Cc1c2ccc(N)cc2nc2cc(N)ccc12`, the T/C (dose: 60.0 mg/kg/injection, schedule: Q01DX005 (ip), vehicle: Klucel (hydroxypropylcellulose) (HPC)) was 100 % of control; the T/C (dose: 120.0 mg/kg/injection, schedule: Q01DX005 (ip), vehicle: Klucel (hydroxypropylcellulose) (HPC)) is 105 % of control; the T/C (dose: 240.0 mg/kg/injection, schedule: Q01DX005 (ip), vehicle: Klucel (hydroxypropylcellulose) (HPC)) was 118 % of control.
On to `O=C(O)C(CO)Nc1ncnc2nc[nH]c12` (configuration not stated), for which the T/C was 106 % of control under setting [1], 109 % of control under setting [2] and 109 % of control under setting [3].
`CN=C(N)c1ccc(N=C(N)c2ccc(-c3ccc(C(N)=Nc4ccc(C(N)=NC)cc4)cc3)cc2)cc1`: the T/C was 154 % of control (dose: 18.0 mg/kg/injection, schedule: Q01DX009 (ip), vehicle: saline); 91 % of control (dose: 625.0 micrograms/kg/injection, schedule: Q01DX009 (ip), vehicle: saline with Tween-80); 108 % of control (dose: 1250.0 micrograms/kg/injection, schedule: Q01DX009 (ip), vehicle: saline with Tween-80); 108 % of control (dose: 2500.0 micrograms/kg/injection, schedule: Q01DX009 (ip), vehicle: saline with Tween-80).
On to `COc1ccc(-c2cc3c(c4cc(OC)ccc24)C(=O)OC3=O)cc1`, for which the T/C was 93 % of control under setting [4]; 97 % of control (dose: 120.0 mg/kg/injection, schedule: Q01DX005 (ip), vehicle: saline with Tween-80); 98 % of control (dose: 240.0 mg/kg/injection, schedule: Q01DX005 (ip), vehicle: saline with Tween-80).
Turning to `O=C1OCCC1C(=O)C(O)(C(F)(F)F)C(F)(F)F` (configuration not stated), the T/C is 100 % of control (dose: 50.0 mg/kg/injection, schedule: Q01DX001 (ip), vehicle: other); 95 % of control (dose: 100.0 mg/kg/injection, schedule: Q01DX001 (ip), vehicle: other); 91 % of control (dose: 200.0 mg/kg/injection, schedule: Q01DX001 (ip), vehicle: other).
Consider `CC(=O)O.Cl.NC1C([O-])OC(CO)C(O)C1O.O=C1OC(C(O)CO)C([O-])=C1[OH2+].[Cu+2]` (configuration not stated), for which the T/C (dose: 3.75 mg/kg/injection, schedule: Q01DX005 (ip), vehicle: saline with Tween-80) was 107 % of control; the T/C (dose: 7.5 mg/kg/injection, schedule: Q01DX005 (ip), vehicle: saline with Tween-80) was 100 % of control; the T/C (dose: 15.0 mg/kg/injection, schedule: Q01DX005 (ip), vehicle: saline with Tween-80) was 98 % of control and 97 % of control; the T/C under setting [4] is 108 % of control.
For `CS(=O)(=O)NCCSSCCNS(C)(=O)=O`, the T/C runs as follows: under setting [5], 106 % of control; under setting [6], 103 % of control; under setting [7], 112 % of control.
For `O=C(NCC1OC(n2cnc3c(=O)[nH]cnc32)C(O)C1O)c1ccc(S(=O)(=O)F)cc1` (configuration not stated), the T/C is 99 % of control (dose: 50.0 mg/kg/injection, schedule: Q01DX001 (ip), vehicle: saline with Tween-80); 96 % of control (dose: 100.0 mg/kg/injection, schedule: Q01DX001 (ip), vehicle: saline with Tween-80); 108 % of control (dose: 200.0 mg/kg/injection, schedule: Q01DX001 (ip), vehicle: saline with Tween-80).
In the case of `O=C1C=CC2(C=C1)CCN=C(c1cc3c(cc1Br)OCO3)O2`, the T/C runs as follows: (dose: 25.0 mg/kg/injection, schedule: Q04DX002 (ip), vehicle: saline) 102 % of control; (dose: 50.0 mg/kg/injection, schedule: Q04DX002 (ip), vehicle: saline) 103 % of control; under setting [8], 108 % of control; (dose: 100.0 mg/kg/injection, schedule: Q04DX002 (ip), vehicle: saline) 100 % of control.
Consider `COc1ccc2c(c1)Sc1c(Cl)c3c(c(Cl)c1=N2)Sc1cc(OC)ccc1N=3`, for which the T/C is 102 % of control under setting [8]; 112 % of control (dose: 200.0 mg/kg/injection, schedule: Q04DX002 (ip), vehicle: saline with Tween-80); 118 % of control (dose: 400.0 mg/kg/injection, schedule: Q04DX002 (ip), vehicle: saline with Tween-80).
Regarding `COC(=O)C(CP(C)(C)=O)C(N=C(C)C(F)(F)F)(c1ccccc1)c1ccccc1` (configuration not stated), the T/C under setting [1] is 100 % of control, the T/C under setting [2] is 100 % of control and the T/C under setting [3] is 107 % of control.
As for `CCC1c2ccc3cc(OC)ccc3c2CCC1(C)C(=O)O` (configuration not stated), the T/C by setting is: under setting [1], 100 % of control; under setting [2], 98 % of control; under setting [3], 100 % of control.
Take `N#CC1=C(C#N)C(=O)C(Br)=C(Br)C1=O`: the T/C is, setting by setting: (dose: 12.5 mg/kg/injection, schedule: Q01DX005 (ip), vehicle: Klucel + Tween-80) 108 % of control; (dose: 25.0 mg/kg/injection, schedule: Q01DX005 (ip), vehicle: Klucel + Tween-80) 106 % of control; (dose: 50.0 mg/kg/injection, schedule: Q01DX005 (ip), vehicle: Klucel + Tween-80) 108 % of control.
As to `Cc1cc(C)nc(NS(=O)(=O)c2ccc(N=NC3=C(O)C(c4ccccc4)N(c4ccccc4)C3=O)cc2)n1` (configuration not stated), the T/C reads like this: (dose: 60.0 mg/kg/injection, schedule: Q01DX005 (ip), vehicle: saline) 93 % of control; (dose: 120.0 mg/kg/injection, schedule: Q01DX005 (ip), vehicle: saline) 86 % of control.
As for `CC1CCC(C)N1P(=O)(N1CC1)N1CC1` (configuration not stated), the T/C reads like this: (dose: 6.25 mg/kg/injection, schedule: Q04DX003 (ip), vehicle: saline) 108 % of control; (dose: 12.5 mg/kg/injection, schedule: Q01DX009 (ip), vehicle: saline) 110 % of control; (dose: 25.0 mg/kg/injection, schedule: Q01DX009 (ip), vehicle: saline) 90 % of control; (dose: 25.0 mg/kg/injection, schedule: Q04DX003 (ip), vehicle: saline) 160 % of control and 200 % of control; (dose: 50.0 mg/kg/injection, schedule: Q04DX003 (ip), vehicle: saline) 155 % of control.
As for `CC(C)(C)COCC(O)Cn1cnc2c(N)ncnc21` (configuration not stated), the T/C runs as follows: under setting [1], 100 % of control; under setting [2], 97 % of control; under setting [3], 91 % of control.
As for `Clc1cccnc1Cl`, the T/C is, setting by setting: (dose: 50.0 mg/kg/injection, schedule: Q01DX009 (ip), vehicle: saline) 100 % of control and 110 % of control; (dose: 100.0 mg/kg/injection, schedule: Q01DX009 (ip), vehicle: saline) 103 % of control and 105 % of control; (dose: 200.0 mg/kg/injection, schedule: Q01DX009 (ip), vehicle: saline) 99 % of control and 106 % of control; (dose: 400.0 mg/kg/injection, schedule: Q01DX009 (ip), vehicle: saline) 97 % of control.
For `CCSc1ccc([N+](=O)[O-])c2c(SCC)c3ccccc3nc12`, the T/C was 92 % of control under setting [5], 95 % of control under setting [6] and 99 % of control under setting [7].
`CC(C)(C)[N]=[V]([Cl])([Cl])[Cl]`: the T/C reads like this: (dose: 12.5 mg/kg/injection, schedule: Q01DX005 (ip), vehicle: Klucel (hydroxypropylcellulose) (HPC)) 98 % of control; (dose: 25.0 mg/kg/injection, schedule: Q01DX005 (ip), vehicle: Klucel (hydroxypropylcellulose) (HPC)) 91 % of control; under setting [1], 98 % of control and 91 % of control.

The record behind these values is PubChem BioAssay AID330 (DTP/NCI, 2004).
